Data reported in patent US9720000B2, “Targeted identification of immunogenic peptides” (The Henry M. Jackson Foundation for the Advancement of …, priority 2005, dated 2017).

Tests used:
Assay type in all cases: cell-based
SKOV-3 tumor cells = test: 51Cr-release cytotoxicity (CTX) assay with peptide-stimulated CTL against SKOV-3; conditions: for average specific CTX (% lysis) against SKOV-3: peptide-stimulated CTL from healthy donor PBMC, SKOV-3 (HLA-A3+), n = 2
Procedure: (§1) T2 HLA-stabilization assays were performed to confirm HLA-A2 binding activity of Her577 by flow cytometry. PBMC from 9 healthy donors were stimulated with Her577 and tested in ^51Cr-release cytotoxicity (CTX) assays against 3 HER2/neu-expressing tumor cell lines.

LNCaP tumor cells = test: 51Cr-release cytotoxicity (CTX) assay with peptide-stimulated CTL against LNCaP; conditions: for average specific CTX (% lysis) against LNCaP: peptide-stimulated CTL from healthy donor PBMC, LNCaP (HLA-A2+), n = 2
Procedure: as §1

HLA-A2 = biological target: T1, HLA-A2 (Homo sapiens, UniProt P04439, D140Y/D185E/D98H/E176V/E277Q/G131W/G231S/I119V/I121R/I166T/I218V/L300P/L318F/N151K/N90K/P208A/P217A/Q86G/Q94H/R138H/R169H/T345S); test: T2 HLA-stabilization (peptide-binding) assay by flow cytometry; conditions: peptide incubated with T2 cells (25 μg per FIG. 5)
T1 construct: endogenous in cells; host or cells: T2 cells
Procedure: FIG. 5 depicts a T2 Peptide-binding assay, in which 25 μg of peptide were incubated with T2 cells, levels of HLA-A2 levels were measured by flow cytometry and are indicated as Mean Fluorescence Intensity units.
as §1

MCF-7 tumor cells = test: 51Cr-release cytotoxicity (CTX) assay with peptide-stimulated CTL against MCF-7; conditions: for average specific CTX (% lysis) against MCF-7: peptide-stimulated CTL from healthy donor PBMC, MCF-7 (HLA-A2+), n = 5
Procedure: as §1

[1] = Her577-stimulated CTL, targets pre-treated with Tz at 50 μg/ml for 24 h, P=0.19

## GP2: immunogenic peptide from HER2/neu (IISAVVGIL) [reference compound]
SKOV-3 tumor cells
  average specific CTX (% lysis) against SKOV-3: 46 ± 5 % lysis
LNCaP tumor cells
  average specific CTX (% lysis) against LNCaP: 26 ± 9 % lysis
HLA-A2
  mean fluorescence intensity (HLA-A2 level on T2 cells): 682
MCF-7 tumor cells
  average specific CTX (% lysis) against MCF-7: 48 ± 1 % lysis

## Her577: peptide Her577 (aa; 577-585) within the Ab-binding site of trastuzumab on HER2/neu (FGPEADQCV)
SKOV-3 tumor cells; [1]
  increase in specific CTX versus untreated SKOV-3: 47%
SKOV-3 tumor cells
  average specific CTX (% lysis) against SKOV-3: 49 ± 28 % lysis
LNCaP tumor cells; [1]
  increase in specific CTX versus untreated LNCaP: 83%
LNCaP tumor cells
  average specific CTX (% lysis) against LNCaP: 30 ± 3 % lysis
HLA-A2
  mean fluorescence intensity (HLA-A2 level on T2 cells): 1275
MCF-7 tumor cells; [1]
  increase in specific CTX versus untreated MCF-7: 16%
MCF-7 tumor cells
  average specific CTX (% lysis) against MCF-7: 45 ± 3 % lysis
